One test deals with TNF-α. Nature of the test: TNF-α secretion in LPS-stimulated RAW264.7 macrophages (ELISA). The settings on record: Mus musculus, LPS (0.5 μg/mL)-stimulated RAW264.7 cells, 24 h, read-out: IC50 for TNF-α inhibition. The test is classed as cell-based, murine. The procedure: To elucidate the anti-inflammatory mechanisms underlying 3g and 3k, we conducted a comprehensive investigation into their impact on the secretion of pro-inflammatory cytokines, employing an LPS-stimulated RAW264.7 macrophage model. TNF-α and IL-6, which serve as pivotal mediators in the pathogenesis of ALI, are primarily secreted by activated alveolar macrophages, neutrophils, and lung structural cells. […] In this study, RAW264.7 cells were treated with LPS (0.5 μg mL^−1) and varying concentrations of 3g or 3k for 24 hours. […] This mechanistic understanding provides robust support for the therapeutic potential of the novel diaryl ketone scaffold in the ALI management.
Fig. 2 Compounds 3g and 3k inhibited the cytokine production of RAW264.7 cells stimulated by LPS. […] The levels of IL-6 (A) and TNF-α (B) in the culture medium were measured by ELISA kits. Data are expressed as mean ± SEM for each group of independent experiments (n = 3); *p < 0.05; **p < 0.01; ***p < 0.001 vs. model group.
Based on the initial screening results, compounds 3g and 3k were selected for further experimentation. […] The levels of TNF-α and IL-6 released into the macrophage supernatant were quantified using ELISA kits sourced from Elabscience (Wuhan, China), according to the manufacturer's guidelines.
(In an ELISA, binding on a coated surface is turned into a signal by an enzyme label.)

The subject of test [1] is LPS-induced NO production in RAW 264.7 cells. Nature of the test: LPS-induced NO production (Griess reagent). The test is classed as cell-based, murine. The conditions noted are these: Mus musculus, RAW264.7, LPS 500 ng/mL 24 h, Griess reagent, means ± SD (n = 3), read-out: IC50, inhibition of LPS-induced NO production. The procedure:
Despite extensive research efforts focused on the treatment ALI, no specific drugs have been identified thus far. In the quest to discover innovative anti-inflammatory drugs for ALI treatment, we assessed the anti-inflammatory potential of pyrrolo[2,1-a]isoquinoline aryl ketones were evaluated through their capacity to suppress LPS-induced NO release in RAW264.7 cells.[21,28] Griess reagent was used to quantify the levels of LPS-induced NO release in RAW264.7 cells following treatment with the synthesized compounds.
The quantification of NO production in activated RAW264.7 cells was achieved by measuring the concentration of nitrite, which serves as a stable oxidative metabolite of NO, employing a previously established protocol.[37] RAW264.7 cells were cultured overnight in 48-well plates at a cellular density of 5 × 10^4 cells per milliliter. […] Briefly, Griess reagents I and II were mixed with 50 μL of the culture medium supernatant, and the resultant mixture was analyzed spectrophotometrically at a wavelength of 540 nm using an automated microplate reader. The NO inhibition rate was calculated using the following formula: NO inhibition rate = [(OD540 − compound OD540)/(OD540 − blank OD540)] × 100%.
(In general: Nitrite, measured by Griess reagent, commonly stands in for NO production.)

The test system of another test is IL-6. The experiment in a line: IL-6 in BALF of ALI mice (ELISA). The test is classed as in vivo, C57BL/6 mice. The settings on record: SWCNT-induced ALI mice, 50 mg per kg dose. The procedure: To confirm the in vivo inhibitory effects of 3g and 3k, we examined the levels of pro-inflammatory cytokines in bronchoalveolar lavage fluid (BALF) from ALI mice.
Based on the results of the previous in vitro experiments, 3g and 3k were chosen for animal experiments. 3g was dissolved in 5% DMSO and 3k was dissolved in 0.5% sodium carboxymethyl cellulose (CMC-Na). Male C57BL/6 mice were randomly divided into four groups of ten animals each: CON, single-walled carbon nanotubes (SWCNT) model, 3k (50 mg kg^−1) + SWCNT, 3g (50 mg kg^−1) + SWCNT. The SWCNT model group was administered a one-time tracheal drip of 50 μL of SWCNT suspension containing 40 μg of SWCNT (approximately 1.86 mg per kg body weight) per mouse to model ALI. A blank tracheal drip of PBS was administered to the negative control. 3k + SWCNT and 3g + SWCNT groups were administered 3k or 3g of 50 mg per kg body weight once a day for 3d. The animals in the CON group received the same volume of 0.5% CMC-Na. The 1st dose was administered 1 h before modeling to avoid excessive damage to mice. The control and model groups were injected intraperitoneally with a blank solvent. […]
The collected bronchoalveolar lavage fluid (BALF) was centrifuged to obtain the supernatant. The concentrations of TNF-α and IL-6 in BALF were determined using ELISA. […]

The test system of test [2] is phosphorylated IκB and p65. The experiment in a line: Western blot of NF-κB pathway in lung tissues. The settings on record: SWCNT-induced ALI mice, 50 mg/kg once a day for 3 d. The test is classed as in vivo, C57BL/6 mice. The source says:
The expression levels of phosphorylated IκB and p65 were meticulously examined. To further delve into and evaluate the impact of compounds 3g and 3k on the NF-κB signaling pathway within SWCNT-induced ALI murine models, western blotting analysis was used to comprehensively assess the activation status of the NF-κB pathway in lung tissues.
Collectively, novel pyrrolo[2,1-a]isoquinoline aryl ketones represent promising anti-inflammatory candidates for SWCNT-induced pulmonary injury, functioning through NF-κB pathway regulation.
Based on the results of the previous in vitro experiments, 3g and 3k were chosen for animal experiments. 3g was dissolved in 5% DMSO and 3k was dissolved in 0.5% sodium carboxymethyl cellulose (CMC-Na). Male C57BL/6 mice were randomly divided into four groups of ten animals each: CON, single-walled carbon nanotubes (SWCNT) model, 3k (50 mg kg^−1) + SWCNT, 3g (50 mg kg^−1) + SWCNT. The SWCNT model group was administered a one-time tracheal drip of 50 μL of SWCNT suspension containing 40 μg of SWCNT (approximately 1.86 mg per kg body weight) per mouse to model ALI. […]
Lung tissue samples were collected from each mouse. […] The protein concentration was accurately determined using the BCA method. […] ECL chemiluminescent reagent was used to visualize the protein bands, and the gray values of the bands were analyzed using ImageJ software.
Background: Immunoblotting shows a protein as a band on a membrane.

We go through two molecules from article PMC12590356, “Novel pyrrolo[2,1-a]isoquinoline aryl ketones attenuate carbon nanotube-induced acute lung injury through NF-κB pathway inhibition” (RSC Advances, 2025).

The IC50 is the concentration at which inhibition is half-maximal. For `O=C(c1ccc(F)cc1)c1ccc2c3ccccc3ccn12` [3g], the half-inhibitory concentration (IC50) is 7.85 µM in the test on TNF-α and 6.91 ± 0.12 µM in test [1]. In the test with IL-6, the “IL-6 level in BALF” value was “effectively suppressed the release of TNF-α and IL-6”. In addition, the “Phosphorylated IκB and p65 levels in lung tissue” value in test [2] was “substantially suppressed these phosphorylation events”.

As to `Cc1ccccc1C(=O)c1ccc2c3ccccc3ccn12` [3k], the IC50 was determined as 8.3 µM in the test on TNF-α and 10.1 ± 2.09 µM in test [1]. Also, the “IL-6 level in BALF” value in the test on IL-6 was “effectively suppressed the release of TNF-α and IL-6”. In test [2], the “Phosphorylated IκB and p65 levels in lung tissue” value is “substantially suppressed these phosphorylation events”.
